In patent US6468981B1, “Compositions and methods for targeting pharmaceutically active materials to cells containing androgen receptors” (Emory University, priority 1994, dated 2002):

Columns and labels:
[1] = target: androgen receptor of LNCaP prostate tumor cells (Homo sapiens, UniProt P10275, T878A); conditions: cited from earlier work
LNCaP cells = experiment: Expression of pCMV-beta (lacZ) DNA in LNCaP cells, X-gal blue staining, number of blue cells per culture plate; assay type: cell-based, human; conditions: DHT-poly-L-lysine alone, no DNA; 48 hours incubation
Description: DHT poly-L-lysine as described in Example 1 was dialyzed against tris-EDTA buffer pH=7 (“HMW-D”) or purified by gel filtration column chromatography (“HMW-2=fraction #2 of the column, HMW-9=fraction 9 of the column). Protein concentrations of reaction products and column fractions were determined by the coomassie blue method. DHT-poly-L-lysine at amounts from 0.05 micrograms to 12.5 micrograms were mixed with pCMV-beta DNA expression construct containing the lacZ gene driven by the CMV immediate early promoter/enhancer in a pVC19 backbone, in amounts from 3 to 50 micrograms in 100 microliters of water at room temperature for one hour with vortex mixing every 15 minutes.
The reaction products of Example 2 were added to 1-3 ml of tissue culture media supplemented with 10% fetal bovine serum and filtered through 0.2 micron filter and added to subconfluent cultures of LNCaP cells growing on glass slides. Cells were incubated at 37 degrees C. 5% CO2 for 48 hours. Next, adherent cells were washed with phosphate buffered saline (PBS) and fixed with 2% paraformaldelyde in 0.1 M NaPO4 buffer pH=7.4 for 45 min. to one hour. Fixative was aspirated and cells rinsed with PBS and X-gal stain was applied. […] Each culture plate was scored for the number of cells which turned blue.

Sequence of androgen receptor of LNCaP prostate tumor cells (P10275 whole entry T878A): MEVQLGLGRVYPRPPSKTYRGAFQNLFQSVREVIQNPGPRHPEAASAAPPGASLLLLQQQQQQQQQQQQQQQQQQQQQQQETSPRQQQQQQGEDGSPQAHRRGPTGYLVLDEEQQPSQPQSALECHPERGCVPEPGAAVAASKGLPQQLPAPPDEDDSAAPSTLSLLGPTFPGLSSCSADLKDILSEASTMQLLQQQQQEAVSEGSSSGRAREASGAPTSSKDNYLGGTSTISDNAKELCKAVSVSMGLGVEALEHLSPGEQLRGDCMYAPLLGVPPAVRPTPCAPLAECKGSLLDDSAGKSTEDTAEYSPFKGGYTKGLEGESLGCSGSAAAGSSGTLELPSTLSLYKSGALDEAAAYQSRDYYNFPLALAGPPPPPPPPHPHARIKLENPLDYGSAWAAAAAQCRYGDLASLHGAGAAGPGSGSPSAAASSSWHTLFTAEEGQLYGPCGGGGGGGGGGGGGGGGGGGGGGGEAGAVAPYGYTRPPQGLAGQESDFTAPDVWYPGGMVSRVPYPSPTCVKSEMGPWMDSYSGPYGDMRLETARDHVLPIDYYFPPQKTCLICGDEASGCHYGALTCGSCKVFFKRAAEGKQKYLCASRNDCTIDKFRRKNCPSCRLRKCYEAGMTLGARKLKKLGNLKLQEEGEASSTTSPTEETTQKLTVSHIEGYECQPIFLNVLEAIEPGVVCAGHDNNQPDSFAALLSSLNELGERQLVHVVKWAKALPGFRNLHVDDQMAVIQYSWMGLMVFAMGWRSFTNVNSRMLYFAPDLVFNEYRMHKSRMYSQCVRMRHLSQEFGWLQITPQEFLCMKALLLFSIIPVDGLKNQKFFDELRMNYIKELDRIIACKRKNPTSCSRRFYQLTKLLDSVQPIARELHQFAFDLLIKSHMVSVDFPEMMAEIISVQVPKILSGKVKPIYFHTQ

Compound: C[C@]1(O)CC[C@H]2[C@@H]3CCC4=CC(=O)CCC4=C3C=C[C@@]21C [R1881, 17β-hydroxy-17α-methyl-estra-4,9,11-trien-3-one]
- Relative binding affinities for the androgen receptor [1]: 100

Compound: DHT-poly-L-lysine HBr
- positive (blue-stained) cells (LNCaP cells): no positive cells
